# Assay results from ChEMBL document CHEMBL1125073, “Antitubulin effects of derivatives of 3-demethylthiocolchicine, methylthio ethers of natural colchicinoids, and thioketones derived from thiocolchicine. Comparison with colchicinoids” (J Med Chem, 1990).
# Key:
# L1210 = assay: cells; details: Mus musculus
# Description: In vitro cytotoxicity against L1210 (murine leukemia) cells.
# Mus musculus = species on record: Mus musculus; details: in vivo, im
# Description: Acute toxicity after intramuscular injection in mice.
IC50 (L1210),Compound,Toxicity (Mus musculus)
40 nM,COc1cc2c(c(OC)c1OC)-c1ccc(SC)c(=S)cc1[C@@H](/N=C(/C)S)CC2,–
–,COc1c2c(cc3c1-c1ccc(OC)c(=O)cc1[C@@H](NC(C)=O)CC3)OCO2,9.7 mg/kg
30 nM,COc1cc2c(c(OC)c1OC)-c1ccc(SC)c(=S)cc1[C@@H](NC(C)=O)CC2,–
10 nM,COc1c2c(cc3c1-c1ccc(SC)c(=O)cc1[C@@H](NC(C)=O)CC3)OCO2 [THIOCORNIGERINE],–
